Measured values as given in patent US20250127773A1, “MODULATORS OF THE BETA-3 ADRENERGIC RECEPTOR USEFUL FOR THE TREATMENT OR PREVENTION OF HEART FAILURE” (Arena Pharmaceuticals, Inc., priority 2021, published 2025).

target: T1, Beta-3 Adrenergic Receptor (Homo sapiens, UniProt P13945); experiment: HTRF cAMP antagonist assay, IC50 determination; assay type: cell-based; conditions: CHO-K1 cells stably expressing recombinant receptor; vs isoproterenol at EC90; unit nM
T1 construct: expressed in transfected cells; host or cells: CHO-K1
T1 sequence (P13945 whole entry): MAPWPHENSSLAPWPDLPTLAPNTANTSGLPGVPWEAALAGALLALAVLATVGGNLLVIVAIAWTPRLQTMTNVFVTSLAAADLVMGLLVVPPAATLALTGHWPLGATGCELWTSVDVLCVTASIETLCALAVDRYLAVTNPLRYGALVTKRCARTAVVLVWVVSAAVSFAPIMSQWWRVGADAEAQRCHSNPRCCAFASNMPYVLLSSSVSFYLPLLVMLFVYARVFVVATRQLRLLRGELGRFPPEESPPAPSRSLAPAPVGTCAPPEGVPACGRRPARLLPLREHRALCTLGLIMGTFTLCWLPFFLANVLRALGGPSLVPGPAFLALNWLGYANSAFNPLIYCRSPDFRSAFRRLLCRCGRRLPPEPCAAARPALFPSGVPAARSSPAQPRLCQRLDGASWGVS
Protocol: HTRF CAMP assays were performed according to manufacturer's instructions (Cisbio, CAMP Dynamic 2 Assay Kit; #62AM4PEJ). CHO-K1 cells stably expressing recombinant receptor were harvested and suspended in warm PBS to make a 300,000 cells/mL stock. This cell suspension was dispensed into 384 well assay plates (PerkinElmer ProxiPlate #6008280) at 5 μL per well (1500 cells/well) along with a CAMP standard curve.
Compounds were dissolved and serially diluted (5-fold) in DMSO to generate a 10-point dose response stock. […] After a brief incubation, 2.5 μL of isoproterenol stock, prepared at a concentration 4 times its EC90 at the receptor of interest, was added to the wells. The EC90 for isoproterenol, a beta-adrenergic agonist, was determined in separate experiments using standard methods to measure agonist potencies.
Following a 1-hour incubation at room temperature, 5 μL of CAMP-D2 Reagent diluted in Lysis Buffer was added to each well followed by 5 μL of Cryptate Reagent. Plates were further incubated at room temperature for 1 hour prior to reading. Time resolved fluorescence measurements were collected on a suitable, HTRF-capable plate reader.
Counts from the plate reader were fit to the CAMP standard curve on the assay plate in order to determine cAMP concentrations in each well, and these values were used to construct dose-response curves to obtain IC50 values.

| IC50 | Structure (SMILES) |
| --- | --- |
| 57.7 nM | CNS(=O)(=O)c1cccc(OCC(O)CNC2COC3(CCN(S(=O)(=O)c4cccc(-c5cnn(C)c5)c4)CC3)C2)c1 [Compound B216, 3-((S)-2-hydroxy-3-((S)-8-(3-(1-methyl-1H-pyrazol-4-yl)phenylsulfonyl)-1-oxa-8-azaspiro[4.5]decan-3-ylamino)propoxy)-N-20 methylbenzenesulfonamide] |
| 155 nM | CCOCCNS(=O)(=O)c1cccc(OCC(O)CNC2COC3(CCN(S(=O)(=O)c4ccc5ccccc5c4)CC3)C2)c1 [Compound B47, NV-(2-ethoxyethyl)-3-((2S)-2-hydroxy-3-(8-(naphthalen-2-ylsulfonyl)-1-oxa-8-azaspiro[4.5]decan-3-ylamino)propoxy)benzenesulfonamide] |

| Structure (SMILES) | IC50 |
| --- | --- |
| C[C@@H](NS(=O)(=O)c1cccc(OC[C@@H](O)CNC2COC3(CCN(S(=O)(=O)c4ccc5ccccc5c4)CC3)C2)c1)C1CC1 (stereo partly drawn) [Compound B93, N—((R)-1-cyclopropylethyl)-3-((2S)-2-hydroxy-3-(8-(naphthalen-2-ylsulfonyl)-1-oxa-8-25 azaspiro[4.5]decan-3-ylamino)propoxy)benzenesulfonamide] | 112 nM |
